Here are results for 5 compounds from US11873303B2, “Substituted pyrazoles as type II IRAK inhibitors” (Merck Patent GmbH, priority 2018, dated 2024).

Data set [1] has as its target T1, IRAK1 (human purified recombinant enzyme His-TEV-IRAK1 (194-712)) (Homo sapiens, UniProt P51617).
T1 construct: His-TEV-IRAK1 (194-712); His (N); TEV cleavage site (N)
Kind of data set: IRAK1 enzymatic assay (ADP-Glo luminescence). It is filed as biochemical. The following applies: human recombinant IRAK1, ATP 1 μM. How it is done:
IRAK1 is a human purified recombinant enzyme (His-TEV-IRAK1 (194-712)). In this assay, IRAK1 hydrolysed ATP and autophosphorylated. Measurement of IRAK-1 inhibition was performed in 384-well format based on luminescence assay (ADP-Glo™ Kinase Assay from Promega). Purified human recombinant IRAK1 (0.3 μg/ml) and serial diluted compounds in DMSO (range of concentration from 10 μM to 0.5 nM) or controls (1% DMSO) were incubated for 15 minutes at RT in assay buffer containing 50 mM Hepes pH 7.0, Fatty acid-free BSA 0.1%, Dithiothreitol (DTT) 2 mM, MgCl2 10 mM, EGTA 0.5 mM, Triton X-100 0.01%. The kinase reaction was then initiated by the addition of ATP at a concentration of 1 μM. After 2 hours of incubation at RT, the reaction was stopped and the unconsumed ATP depleted by the addition of ADP-Glo™ Reagent according to supplier instructions. After 40 minutes of incubation at RT, the Kinase Detection Reagent was then added to the assay plate according to supplier instructions. After 20 minutes of incubation at RT, the luminescence signal was measured with a luminometer (PerkinElmer Envision or equivalent reader).

The target of data set [2] is T2, IRAK4 (human purified recombinant enzyme His-TEV-IRAK4 (1-460)) (Homo sapiens, UniProt Q9NWZ3).
T2 construct: His-TEV-IRAK4 (1-460); His (N); TEV cleavage site (N)
T2 sequence (Q9NWZ3 1-460): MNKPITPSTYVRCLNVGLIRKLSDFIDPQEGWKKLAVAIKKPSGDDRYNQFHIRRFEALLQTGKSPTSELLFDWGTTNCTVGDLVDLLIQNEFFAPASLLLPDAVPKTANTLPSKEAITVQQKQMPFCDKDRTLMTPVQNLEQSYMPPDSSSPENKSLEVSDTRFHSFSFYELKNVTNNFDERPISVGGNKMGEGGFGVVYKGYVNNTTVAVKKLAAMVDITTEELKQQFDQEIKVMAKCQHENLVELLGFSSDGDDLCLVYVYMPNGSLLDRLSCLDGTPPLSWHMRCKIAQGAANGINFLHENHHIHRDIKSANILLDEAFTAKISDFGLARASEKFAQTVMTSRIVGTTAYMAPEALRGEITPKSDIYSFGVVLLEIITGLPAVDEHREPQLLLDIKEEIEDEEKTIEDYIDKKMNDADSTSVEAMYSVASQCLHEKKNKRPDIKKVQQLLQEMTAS
The data set can be described thus: IRAK4 enzymatic assay (ADP-Glo luminescence). Format: biochemical. Particulars: human recombinant IRAK4, ATP 2 μM, STK1-biotin peptide. How it is done:
IRAK4 is a human purified recombinant enzyme (His-TEV-IRAK4 (1-460)). In this assay, IRAK4 hydrolysed ATP, autophosphorylated and phosphorylated a Serine/Threonine generic peptidic substrate (STK: 61ST1BLC from CisBio International). Measurement of IRAK-4 inhibition was performed in 384-well format based on a luminescence assay (ADP-Glo™ Kinase Assay from Promega). Purified human recombinant IRAK4 (0.3 μg/ml) and serial diluted compounds in DMSO (range of concentration from 10 μM to 0.5 nM) or controls (1% DMSO) were incubated for 15 minutes at RT in assay buffer containing 50 mM Hepes pH 7.0, Fatty acid-free BSA 0.1%, Dithiothreitol (DTT) 2 mM, MgCl2 10 mM, EGTA 0.5 mM, Triton X-100 0.01%, MnCl2 5 mM. The kinase reaction was then initiated by the addition of ATP (2 μM) and the peptidic substrate STK1-biotin peptide (300 nM). After 2 hours of incubation at RT, the reaction was stopped and the unconsumed ATP depleted by the addition of ADP-Glo™ Reagent according to supplier instructions. After 40 minutes of incubation at RT, the Kinase Detection Reagent was then added to the assay plate according to supplier instructions. After 20 minutes of incubation at RT, the luminescence signal was measured with a plate-reading luminometer (PerkinElmer Envision or equivalent reader).

In data set [3] the test system is TLR7 induced IL-6 secretion in human mononuclear cells (PBMC's). Kind of data set: TLR7 induced IL-6 in human PBMC's. The following applies: TLR7 ligand 2 uM overnight, IL-6 AlphaLISA. Format: cell-based. As to the method: TLR7 Induced IL-6 in Human PBMC's
Human PBMC assay was used as one of the functional assays to monitor the activity of IRAK1 and IRAK4 small molecule inhibitors on TLR7 induced IL-6 secretion in human mononuclear cells (PBMC's). Human PBMCs were prepared from buffy coats (whole blood enriched with leukocytes and platelets) obtained from healthy volunteers used either fresh or frozen were plated in assay media (RPMI+2% P/S/L-glu+10% HI-FBS) and pre-treated with compounds in DMSO/media (range of concentrations from 25 uM to 0.4 nM) or controls (0.25% DMSO) for 30 minutes at 37° C. in assay media. Following pre-treatment with IRAK1 and IRAK4 inhibitors, PBMC's were stimulated with TLR7 specific ligand (2 uM) overnight (16-18 hrs) at 37° C. After incubation supernatant was transferred to 384 well PE AlphaPlate-384 and IL-6 was quantified using Perkin Elmer IL-6 Alpha LISA kit (AL223C). Plates were read on an Envision® plate reader with Alpha Technology®.

T1 sequence (P51617 194-712): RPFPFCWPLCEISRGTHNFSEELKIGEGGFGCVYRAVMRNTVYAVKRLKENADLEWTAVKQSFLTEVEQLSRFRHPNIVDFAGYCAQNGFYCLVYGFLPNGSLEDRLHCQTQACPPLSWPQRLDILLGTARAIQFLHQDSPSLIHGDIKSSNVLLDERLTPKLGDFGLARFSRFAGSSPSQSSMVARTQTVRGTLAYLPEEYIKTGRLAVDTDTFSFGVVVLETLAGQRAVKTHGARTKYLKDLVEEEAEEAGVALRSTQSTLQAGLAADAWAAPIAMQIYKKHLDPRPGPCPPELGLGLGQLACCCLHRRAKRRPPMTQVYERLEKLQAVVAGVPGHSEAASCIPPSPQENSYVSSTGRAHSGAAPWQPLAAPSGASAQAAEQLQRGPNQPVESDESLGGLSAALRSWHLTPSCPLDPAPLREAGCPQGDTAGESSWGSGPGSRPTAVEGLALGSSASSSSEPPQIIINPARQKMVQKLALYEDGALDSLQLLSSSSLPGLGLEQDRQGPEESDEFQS

The compound `Cc1ccc(-n2nc(C(C)(C)C)cc2NC(=O)N[C@H]2CC[C@@H](c3cn(C)c4ncnc(N)c43)CC2)cc1` [Example 27, 3-[3-tert-butyl-1-(4-methylphenyl)-1H-pyrazol-5-yl]-1-[(1s,4s)-4-{4-amino-7-methyl-7H-pyrrolo[2,3-d]pyrimidin-5-yl}cyclohexyl]urea] showed a melting point of 228 to 230 °C. For the same compound, the IC50 in data set [1] lay within 100 to 1000 nM. Further, the IC50 in data set [2] is 1000 to 5000 nM.
In turn, `Cc1ccc(-n2nc(C3(C)COC3)cc2NC(=O)Nc2ccc(-c3nn(C)c4ncnc(N)c34)cc2Cl)cc1` [Example 18, 1-(4-{4-amino-1-methyl-1H-pyrazolo[3,4-d]pyrimidin-3-yl}-2-chlorophenyl)-3-[3-(3-methyloxetan-3-yl)-1-(4-methylphenyl)-1H-pyrazol-5-yl]urea] came in with a melting point of 170 to 172 °C. In addition, in data set [1], the IC50 was below 100 nM. The half-maximal inhibitory concentration (IC50) in data set [2] was 1000 to 5000 nM. In data set [3], the IC50 lay in the range of 100 to 1000 nM.
For `Cc1ccc(-n2nc(C(C)(C)CO)cc2NC(=O)Nc2ccc(-c3nn(C)c4ncnc(N)c34)cc2Cl)cc1` [Example 17, 1-(4-{4-amino-1-methyl-1H-pyrazolo[3,4-d]pyrimidin-3-yl}-2-chlorophenyl)-3-[3-(1-hydroxy-2-methylpropan-2-yl)-1-(4-methylphenyl)-1H-pyrazol-5-yl]urea] the same measures were 192 to 194 °C, below 100 nM, 1000 to 5000 nM and below 100 nM.
With `Cc1ccc(-n2nc(C(C)(C)C)cc2NC(=O)Nc2ccc(-c3csc4ncnc(N)c34)cc2Cl)cc1` [Example 11, 1-[4-(4-Amino-thieno[2,3-d]pyrimidin-5-yl)-2-chloro-phenyl]-3-(5-tert-butyl-2-p-tolyl-2H-pyrazol-3-yl)-urea], the IC50 was below 100 nM in data set [1], 1000 to 5000 nM in data set [2] and below 100 nM in data set [3].
With `Cc1ccc(-n2nc(C(C)(C)C)cc2NC(=O)Nc2ccc(-c3csc4ncnc(N)c34)c(F)c2Cl)cc1` [Example 23, 1-[4-(4-Amino-thieno[2,3-d]pyrimidin-5-yl)-2-chloro-3-fluoro-phenyl]-3-(5-tert-butyl-2-p-tolyl-2H-pyrazol-3-yl)-urea], the half-maximal inhibitory concentration (IC50) is below 100 nM in data set [1], 1000 to 5000 nM in data set [2] and below 100 nM in data set [3].
